The target in one data set is T1, PmSiaT (Proteus mirabilis, UniProt B4EZY7).
T1 construct: made in house
T1 sequence (B4EZY7 1-496): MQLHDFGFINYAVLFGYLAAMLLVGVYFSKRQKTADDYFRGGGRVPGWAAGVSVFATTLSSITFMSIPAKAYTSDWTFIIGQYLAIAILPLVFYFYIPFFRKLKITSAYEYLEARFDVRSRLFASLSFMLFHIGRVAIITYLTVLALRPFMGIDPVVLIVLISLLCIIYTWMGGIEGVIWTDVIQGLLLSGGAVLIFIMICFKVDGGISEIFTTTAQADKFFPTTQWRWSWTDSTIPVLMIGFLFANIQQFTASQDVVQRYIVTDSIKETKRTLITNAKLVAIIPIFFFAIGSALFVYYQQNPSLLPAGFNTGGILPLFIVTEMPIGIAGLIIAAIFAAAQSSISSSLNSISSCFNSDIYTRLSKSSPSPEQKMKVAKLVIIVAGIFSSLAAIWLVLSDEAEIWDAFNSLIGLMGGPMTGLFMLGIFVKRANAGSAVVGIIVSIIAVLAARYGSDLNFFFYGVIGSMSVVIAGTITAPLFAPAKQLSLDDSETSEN
Briefly: nanoDSF thermal shift assay, PmSiaT. The class given is binding. Conditions: for Average 2: average of experiment 2; for Average 3: average of experiment 3; for Replicate 1: experiment 1, second capillary; for Replicate 2: experiment 2, second capillary; for Replicate 3: experiment 3, second capillary; for Tm 1: experiment 1, first capillary; for Tm2: experiment 2, first capillary; for Tm 3: experiment 3, first capillary; for ΔTm at 1250 µM: read-out: ΔTm average overall. The gist of the method:
(§1)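 Protein at 2 μM in PBS with 0.0174% (w/v) DDM and ligand at 1.25 mM were heated from 25 to 95 °C at 1 °C/min, with 330/350 nm fluorescence ratio and its first derivative giving Tm. ΔTm is relative to the Neu5Ac Tm, averaged over 3 experiments with 2 capillaries each.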
For orientation: In DSF a fluorescence change marks the thermal transition of the protein.

For another data set, the target named is SaSiaT (Staphylococcus aureus, UniProt A0A0H2XJ46). Briefly: nanoDSF thermal shift assay, SaSiaT. The format is binding. Conditions: for Average 1 / Average 2 / Average 3 / Replicate 1 / Replicate 2 / Replicate 3: SaSiaT Tm; for Average 1: average of experiment 1; for Average 2: average of experiment 2; for Average 3: average of experiment 3; for Replicate 1: experiment 1, second capillary; for Replicate 1 / Replicate 2 / Replicate 3 / Tm 1 / Tm2 / Tm 3 / Overall average (Tm): 1.25 mM; for Replicate 2: experiment 2, second capillary; for Replicate 3: experiment 3, second capillary; for Tm 1 / Tm2 / Tm 3 / Overall average (Tm): SaSiaT; for Tm 1: experiment 1, first capillary; for Tm2: experiment 2, first capillary; for Tm 3: experiment 3, first capillary; for Overall average (Tm): three experiments. The essentials: as §1

Substrate in data set [1]: CC(=O)N[C@H]1[C@H]([C@H](O)[C@H](O)CO)OC(O)(C(=O)O)C[C@@H]1O
Put plainly: cells, lysate or membranes named. The settings on record: other: Neu5Ac transport by SaSiaT in proteoliposomes; pH 7.0; 25.0 °C.

The mark [2] stands for this setting: PmSiaT, three experiments, 1.25 mM.

Read-outs that look alike come from different tables or passages of the source.

In general, ΔTm refers to the shift of the melting midpoint relative to a reference. For `CC(C)(C)C(=O)NC1C(O)CC(O)(C(=O)O)OC1C(O)C(O)CO` (stereo not shown) [Compound 6c], on PmSiaT (PmSiaT Tm), the “Average 2” value came out at 46.7 °C and the “Average 3” value came out at 46.7 °C. Further, at PmSiaT (PmSiaT Tm, 1.25 mM), the “Replicate 1” value was 46.3 °C, the “Replicate 2” value worked out at 46.7 °C and the “Replicate 3” value came out at 46.6 °C. At PmSiaT (PmSiaT, 1.25 mM), the “Tm 1” value is 46.6 °C, the Tm2 was found to be 46.7 °C and the “Tm 3” value worked out at 46.7 °C. Besides, the ΔTm on PmSiaT (PmSiaT, experiment 1, vs Neu5Ac, read-out: ΔTm 1) is -2.5 °C. For the same molecule, at PmSiaT (PmSiaT, experiment 2, vs Neu5Ac, read-out: ΔTm 2), the ΔTm was -2.5 °C. Moreover, at PmSiaT (PmSiaT, experiment 3, vs Neu5Ac, read-out: ΔTm 3), the thermal shift (ΔTm) was -2.6 °C. Moreover, at PmSiaT (setting [2]), the Tm average overall was 46.6 °C. Further, the ΔTm at 1250 µM at PmSiaT (PmSiaT, three experiments, vs Neu5Ac, 1.25 mM) is -2.5 °C. Further, at SaSiaT, the “Average 1” value was 43.5 °C, the “Average 2” value amounted to 44.2 °C, the “Average 3” value came to 43.8 °C and the “Replicate 1” value stood at 43.4 °C. For the same molecule, at SaSiaT, the “Replicate 2” value is 44.1 °C, the “Replicate 3” value was 43.6 °C, the “Tm 1” value amounted to 43.6 °C and the “Tm2” value came to 44.2 °C. Moreover, at SaSiaT, the “Tm 3” value was found to be 43.9 °C and the “Overall average (Tm)” value came out at 43.8 °C.

As for `O=C(CF)NC1C(O)CC(O)(C(=O)O)OC1C(O)C(O)CO` (stereo not shown) [Compound 6f], on PmSiaT (PmSiaT Tm, average of experiment 1), the “Average 1” value is 47.4 °C. Besides, at PmSiaT (PmSiaT Tm), the “Average 2” value stood at 47.6 °C and the “Average 3” value turned out to be 47.4 °C. Also, at PmSiaT (PmSiaT Tm, 1.25 mM), the “Replicate 1” value was 47.4 °C, the “Replicate 2” value came out at 47.6 °C and the “Replicate 3” value is 47.3 °C. Also, at PmSiaT (PmSiaT, 1.25 mM), the “Tm 1” value was determined as 47.4 °C, the Tm2 worked out at 47.7 °C and the “Tm 3” value worked out at 47.4 °C. In addition, at PmSiaT (setting [2]), the Tm average overall amounted to 47.5 °C. Further, the ΔTm at 1250 µM at PmSiaT is -1.7 °C. Further, at SaSiaT, the “Average 1” value was 52.0 °C, the “Average 2” value is 51.2 °C, the “Average 3” value was determined as 51.9 °C and the “Replicate 1” value stood at 52.0 °C. Further, on SaSiaT, the “Replicate 2” value worked out at 51.2 °C, the “Replicate 3” value was determined as 51.8 °C, the “Tm 1” value worked out at 52.0 °C and the “Tm2” value came to 51.2 °C. At SaSiaT, the “Tm 3” value stood at 52.1 °C and the “Overall average (Tm)” value is 51.7 °C.

B1: SiaT from S. aureus (Staphylococcus aureus subsp. aureus USA300) (protein)
chain: MKEVGFGTLNWVAVIIYLLAMLFIGVYFTKRASQSTNSFFTASGRLPSWVVGFSIYATTLSAITFMSTPEKAFLTDWSYIAGNIAIVAIIPLLIYFYVPFFKKLKVTSAYEYLEARFGPSIRVIGSLLFVVYHLGRVAIVIYLPTLAITSVSDMNPYIVASLVGLLCILYTFLGGFEGVVWSDFIQGVILLGGALVIIILGVVNIKGGFGTVFADAIEHKKLISADNWKLNTAAAAIPIIFLGNIFNNLYQYTASQDVVQRYQASDSLKETNKSLWTNGILALISAPLFYGMGTMLYSFYTHEAVLPKGFNTSSVVPYFILTEMPPFVAGLLIAAIFAAAQSTISSSLNSISACISIDIKQRFFGKGSERHEVNFARFIIIIAGIFGFGMSLYLIASNSNDLWDLFLFVTGLFGVPLAGVFAVGIFTKRTNTFGVICGLILGIIFAYVYNGVGKGNSPFYVSTISFTVAFVFAYILSFIVPSKHKKDITGLTIFEKDKPSTYISKTATKK
By Km is commonly meant the substrate concentration at which the rate is half of its maximum. Consider B1, for which, in data set [1], the Km came to 12.2 ± 2.2 µM and the Vmax is on record as 51 ± 9 nmol/mg protein/min.
